{
  "source": "paper PMC5571211",
  "about": "(Scientific Reports, 2017)",
  "molecular_target": "T1, purified ovine COX-1 (Ovis aries, UniProt P05979)",
  "T1 construct": "purchased Cayman Chemical (Biomol, Hamburg, Germany)",
  "T1 sequence (P05979 25-600)": "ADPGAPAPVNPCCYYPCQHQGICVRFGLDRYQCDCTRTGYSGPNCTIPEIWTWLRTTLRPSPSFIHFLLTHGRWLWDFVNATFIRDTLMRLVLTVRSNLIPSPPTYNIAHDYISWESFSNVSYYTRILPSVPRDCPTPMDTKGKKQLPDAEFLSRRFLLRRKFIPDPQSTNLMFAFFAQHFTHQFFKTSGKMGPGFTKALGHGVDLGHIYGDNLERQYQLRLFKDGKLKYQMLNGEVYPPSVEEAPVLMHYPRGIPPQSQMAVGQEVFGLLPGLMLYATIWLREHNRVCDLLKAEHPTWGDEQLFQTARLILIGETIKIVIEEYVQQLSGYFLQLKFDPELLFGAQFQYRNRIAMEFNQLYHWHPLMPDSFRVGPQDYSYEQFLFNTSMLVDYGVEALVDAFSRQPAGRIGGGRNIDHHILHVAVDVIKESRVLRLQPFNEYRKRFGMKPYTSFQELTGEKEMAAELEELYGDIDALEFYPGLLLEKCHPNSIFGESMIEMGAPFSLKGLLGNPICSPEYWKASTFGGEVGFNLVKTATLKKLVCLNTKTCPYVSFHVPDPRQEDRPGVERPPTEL",
  "test": "COX-1 activity, cell-free (12-HHT formation)",
  "type": "biochemical",
  "conditions": "10 µM",
  "protocol": "COX activity was assayed by using purified ovine COX-1 and recombinant human COX-2, respectively. Enzymes were diluted in Tris buffer (100 mM, pH 8) supplemented with glutathione (5 mM), EDTA (100 µM) and hemoglobin (5 µM) to a final concentration of 50 U/mL (COX-1) or 20 U/mL (COX-2) and pre-incubated with test compounds or vehicle (0.1% DMSO) for 5 min at RT. After 30 sec at 37 °C, reactions were started with 5 µM AA (COX-1) or 2 µM AA (COX-2) and stopped after 5 min at 37 °C by addition of one volume of ice-cold methanol. Solid phase extraction was performed as described above after addition of 200 ng of internal PGB1 standard and COX product formation was determined by analysis of 12-HHT formation as reported before.",
  "data": [
    {"compound": "Cc1cc(OCc2nc3ccccc3s2)ccc1NC(=O)Nc1ccc(Cl)c(Cl)c1", "note": "[diflapolin, N-[4-(benzothiazol-2-ylmethoxy)-2-methylphenyl]-N′-(3,4-dichlorophenyl)urea]", "values": [
      {"measurement": "inhibition of COX-1 activity", "value": "did not significantly inhibit"}
    ]}
  ]
}
